Data as given in ChEMBL document CHEMBL5532664, “Discovery, Optimization, and Evaluation of Potent and Selective DNA-PK Inhibitors in Combination with Chemotherapy or Radiotherapy for the Treatment of Malignancies” (J Med Chem, 2024).
Calls of active or inactive are those of the source. The calls are words filed in the database; no cut-off is given here.

Legend:
HCT-116 [1] = experiment: Inhibition of colony formation in human HCT-116 cells at […] preincubated with compound for 1 hr followed by exposure to 2 Gy gamma irradiation and measured after 7 days by crystal violet staining based chemiluminescence assay relative to control; format: functional; conditions: HCT-116, light or radiation study, dose 0.25 µM, time 169 hrs
HCT-116 [2] = experiment: Inhibition of colony formation in human HCT-116 cells preincubated with compound for 1 hr followed by exposure to 2 Gy gamma irradiation and measured after 7 days by crystal violet staining based chemiluminescence assay; format: functional, cell-based; conditions: HCT-116, light or radiation study
HCT-116 [3] = experiment: Inhibition of bleomycin-induced DNA-double stranded breaks in human HCT-116 cells assessed as reduction in gammaH2AX level pretreated for 1 hrs followed by bleomycin addition and measured after 6 hrs Western blot analysis; format: functional, cell-based; conditions: dose 0.03-30 µM, time 7.0 hrs
HCT-116 [4] = experiment: Induction of cell cycle arrest in human HCT-116 cells assessed as accumulation of cells G0/G1 phase at 250 nM (reference value: 66.45%); format: functional
HCT-116 [5] = experiment: Induction of cell cycle arrest in human HCT-116 cells assessed as accumulation of cells G0/G1 phase at 500 nM (reference value: 66.45%); format: functional
HCT-116 [6] = experiment: Induction of cell cycle arrest in human HCT-116 cells assessed as accumulation of cells G0/G1 phase at 1000 nM (reference value: 66.45%); format: functional
HCT-116 [7] = experiment: Induction of cell cycle arrest in human HCT-116 cells assessed as accumulation of cells G0/G1 phase at 2000 nM (reference value: 66.45%); format: functional
HCT-116 [8] = experiment: Induction of cell cycle arrest in human HCT-116 cells assessed as accumulation of cells G2/M phase at 250 nM (reference value: […]%); format: functional
HCT-116 [9] = experiment: Induction of cell cycle arrest in human HCT-116 cells assessed as accumulation of cells G2/M phase at 500 nM (reference value: […]%); format: functional
HCT-116 [10] = experiment: Induction of cell cycle arrest in human HCT-116 cells assessed as accumulation of cells G2/M phase at 1000 nM (reference value: […]%); format: functional
HCT-116 [11] = experiment: Induction of cell cycle arrest in human HCT-116 cells assessed as accumulation of cells G2/M phase at 2000 nM (reference value: […]%); format: functional
HCT-116 [12] = experiment: Induction of cell cycle arrest in human HCT-116 cells assessed as accumulation of cells S phase at 250 nM (reference value: 19.72%); format: functional
HCT-116 [13] = experiment: Induction of cell cycle arrest in human HCT-116 cells assessed as accumulation of cells S phase at 500 nM (reference value: 19.72%); format: functional
HCT-116 [14] = experiment: Induction of cell cycle arrest in human HCT-116 cells assessed as accumulation of cells S phase at 1000 nM (reference value: 19.72%); format: functional
HCT-116 [15] = experiment: Induction of cell cycle arrest in human HCT-116 cells assessed as accumulation of cells S phase at 2000 nM (reference value: 19.72%); format: functional
HCT-116 [16] = experiment: Induction of cell cycle arrest in human HCT-116 cells assessed as accumulation of cells G0/G1 phase at 250 nM incubated for 1 hr followed by exposure to 2 Gy gamma irradiation and measured after 48 hrs propidium iodide staining based analysis (reference value: 60.01%); format: functional; conditions: time 49 hrs
HCT-116 [17] = experiment: Induction of cell cycle arrest in human HCT-116 cells assessed as accumulation of cells G0/G1 phase at 500 nM incubated for 1 hr followed by exposure to 2 Gy gamma irradiation and measured after 48 hrs propidium iodide staining based analysis (reference value: 60.01%); format: functional; conditions: time 49 hrs
HCT-116 [18] = experiment: Induction of cell cycle arrest in human HCT-116 cells assessed as accumulation of cells G0/G1 phase at 1000 nM incubated for 1 hr followed by exposure to 2 Gy gamma irradiation and measured after 48 hrs propidium iodide staining based analysis (reference value: 60.01%); format: functional; conditions: time 49 hrs
HCT-116 [19] = experiment: Induction of cell cycle arrest in human HCT-116 cells assessed as accumulation of cells G0/G1 phase at 2000 nM incubated for 1 hr followed by exposure to 2 Gy gamma irradiation and measured after 48 hrs propidium iodide staining based analysis (reference value: 60.01%); format: functional; conditions: time 49 hrs
HCT-116 [20] = experiment: Induction of cell cycle arrest in human HCT-116 cells assessed as accumulation of cells G2/M phase at 250 nM incubated for 1 hr followed by exposure to 2 Gy gamma irradiation and measured after 48 hrs propidium iodide staining based analysis (reference value: 18.65%); format: functional; conditions: time 49 hrs
HCT-116 [21] = experiment: Induction of cell cycle arrest in human HCT-116 cells assessed as accumulation of cells G2/M phase at 500 nM incubated for 1 hr followed by exposure to 2 Gy gamma irradiation and measured after 48 hrs propidium iodide staining based analysis (reference value: 18.65%); format: functional; conditions: time 49 hrs
HCT-116 [22] = experiment: Induction of cell cycle arrest in human HCT-116 cells assessed as accumulation of cells G2/M phase at 1000 nM incubated for 1 hr followed by exposure to 2 Gy gamma irradiation and measured after 48 hrs propidium iodide staining based analysis (reference value: 18.65%); format: functional; conditions: time 49 hrs
HCT-116 [23] = experiment: Induction of cell cycle arrest in human HCT-116 cells assessed as accumulation of cells G2/M phase at 2000 nM incubated for 1 hr followed by exposure to 2 Gy gamma irradiation and measured after 48 hrs propidium iodide staining based analysis (reference value: 18.65%); format: functional; conditions: time 49 hrs
HCT-116 [24] = experiment: Induction of cell cycle arrest in human HCT-116 cells assessed as accumulation of cells S phase at 250 nM incubated for 1 hr followed by exposure to 2 Gy gamma irradiation and measured after 48 hrs propidium iodide staining based analysis (reference value: 21.35%); format: functional; conditions: time 49 hrs
HCT-116 [25] = experiment: Induction of cell cycle arrest in human HCT-116 cells assessed as accumulation of cells S phase at 500 nM incubated for 1 hr followed by exposure to 2 Gy gamma irradiation and measured after 48 hrs propidium iodide staining based analysis (reference value: 21.35%); format: functional; conditions: time 49 hrs
HCT-116 [26] = experiment: Induction of cell cycle arrest in human HCT-116 cells assessed as accumulation of cells S phase at 1000 nM incubated for 1 hr followed by exposure to 2 Gy gamma irradiation and measured after 48 hrs propidium iodide staining based analysis (reference value: 21.35%); format: functional; conditions: time 49 hrs
HCT-116 [27] = experiment: Induction of cell cycle arrest in human HCT-116 cells assessed as accumulation of cells S phase at 2000 nM incubated for 1 hr followed by exposure to 2 Gy gamma irradiation and measured after 48 hrs propidium iodide staining based analysis (reference value: 21.35%); format: functional; conditions: time 49 hrs
NCI-H460 = experiment: Antitumor activity against human NCI-H460 cells xenografted in BALB/ c nude mouse assessed as inhibition of tumor growth at 100 mg/kg, po administered once daily with 2 Gy irradiation and measured upto 7 days by vernier caliper analysis; format: functional, organism-based; conditions: time <= 7.0 day
A549 [28] = experiment: Antitumor activity against human A549 cells xenografted in BALB/c nude mouse assessed as tumor growth inhibition at 7.5 mg/kg, po administered once daily measured upto 26 days in presence of paclitaxel by vernier caliper analysis relative to control; format: functional; conditions: A549, 624 h, time <= 26 day, read-out: TGI
BT-474 = experiment: Antitumor activity against human BT-474 cells xenografted in BALB/c nude mouse assessed as inhibition of tumor growth at 0.25 to 12.5 mg/kg, po measured upto 10 days in presence of liposome doxorubicin by vernier caliper analysis; format: functional, organism-based; conditions: dose lower […], dose upper 12.5 mg/kg, time <= 10.0 day
[29] = biological target: DNA-dependent protein kinase catalytic subunit (Homo sapiens, UniProt P78527)
Description: Inhibition of human DNA-PK incubated for 30 mins in presence of Mg/ATP by HTRF method

[30] = rat, in vivo, iv, 5 mg/kg, 24 h
Description: Clearance in Sprague-Dawley rat plasma at 5 mg/kg, iv measured upto 24 hrs by LC-MS/MS analysis

in vivo [31] = conditions: Sprague-Dawley, rat, po, 5 mg/kg
in vivo [32] = conditions: Sprague-Dawley, rat, iv, 5 mg/kg
in vivo [33] = conditions: Sprague-Dawley, rat, plasma, po, 5 mg/kg
Description: Clearance in Sprague-Dawley rat plasma at 5 mg/kg, po measured upto 24 hrs by LC-MS/MS analysis

in vivo [34] = conditions: Sprague-Dawley, rat, po, 5 mg/kg; remark: listed apart in the source
in vivo [35] = conditions: Sprague-Dawley, rat, iv, 5 mg/kg; remark: listed apart in the source
in vivo [36] = conditions: Sprague-Dawley, rat, po, 5 mg/kg; remark: listed apart in the source
in vivo [37] = conditions: Sprague-Dawley, rat, iv, 5 mg/kg; remark: listed apart in the source
in vivo [38] = conditions: Sprague-Dawley, rat, po, 5 mg/kg; remark: listed apart in the source
in vitro = conditions: human, liver microsomes
hERG (KCNH2) = hERG (KCNH2) (Homo sapiens, UniProt Q12809); experiment: in vitro
hERG (KCNH2), sequence (Q12809 whole entry): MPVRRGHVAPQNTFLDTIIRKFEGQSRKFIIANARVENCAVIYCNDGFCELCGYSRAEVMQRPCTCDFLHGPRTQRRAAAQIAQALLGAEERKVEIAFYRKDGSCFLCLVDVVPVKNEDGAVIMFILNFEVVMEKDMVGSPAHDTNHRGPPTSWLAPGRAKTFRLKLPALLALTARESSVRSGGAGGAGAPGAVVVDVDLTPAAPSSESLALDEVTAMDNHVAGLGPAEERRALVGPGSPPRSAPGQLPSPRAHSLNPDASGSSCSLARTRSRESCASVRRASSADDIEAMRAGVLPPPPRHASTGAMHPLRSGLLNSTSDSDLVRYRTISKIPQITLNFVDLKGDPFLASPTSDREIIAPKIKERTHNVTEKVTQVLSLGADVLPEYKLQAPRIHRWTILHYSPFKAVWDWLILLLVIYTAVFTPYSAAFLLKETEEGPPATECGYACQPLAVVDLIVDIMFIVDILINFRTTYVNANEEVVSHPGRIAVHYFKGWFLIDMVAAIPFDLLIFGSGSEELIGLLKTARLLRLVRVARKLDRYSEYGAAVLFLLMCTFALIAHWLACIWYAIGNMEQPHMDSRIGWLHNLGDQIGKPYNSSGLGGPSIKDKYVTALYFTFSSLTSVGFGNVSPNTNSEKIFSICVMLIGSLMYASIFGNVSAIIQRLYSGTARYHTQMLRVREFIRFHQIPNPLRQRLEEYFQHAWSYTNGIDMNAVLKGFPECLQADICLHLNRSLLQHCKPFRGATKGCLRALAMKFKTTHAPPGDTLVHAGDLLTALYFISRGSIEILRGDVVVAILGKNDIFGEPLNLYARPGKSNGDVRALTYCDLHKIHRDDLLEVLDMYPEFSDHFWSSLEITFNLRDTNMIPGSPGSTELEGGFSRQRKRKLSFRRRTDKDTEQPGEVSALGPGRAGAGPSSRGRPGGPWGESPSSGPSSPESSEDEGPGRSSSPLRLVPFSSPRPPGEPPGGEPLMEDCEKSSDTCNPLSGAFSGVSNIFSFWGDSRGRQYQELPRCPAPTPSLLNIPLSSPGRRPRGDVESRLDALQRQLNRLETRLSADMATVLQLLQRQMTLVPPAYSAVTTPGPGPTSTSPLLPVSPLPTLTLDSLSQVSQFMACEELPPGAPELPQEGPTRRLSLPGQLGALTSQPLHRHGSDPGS
Description: Inhibition of human ERG at 20 uM relative to control

A549 [39] = experiment: Antitumor activity against human A549 cells xenografted in BALB/c nude mouse assessed as inhibition of tumor growth at 10 mg/kg, iv administered thrice measured upto 26 days by vernier caliper analysis; format: functional, organism-based; conditions: time <= 26.0 day
A549 [40] = experiment: Antitumor activity against human A549 cells xenografted in BALB/c nude mouse assessed as tumor growth inhibition at 15 mg/kg, po administered once daily measured upto 26 days in presence of paclitaxel by vernier caliper analysis relative to control; format: functional; conditions: A549, 624 h, time <= 26 day, read-out: TGI
[41] = Toxicity in BALB/c nude mouse assessed as effect on body weight loss at 15 mg/kg, po measured upto 28 days […]; format: organism-based; conditions: in vivo, 672 h, time < 28 day
[42] = rat, in vivo, po, 5 mg/kg, 24 h

## Cc1cc(-c2cnn(C)c2)ncc1Nc1ncc2c(n1)n(C1CCOCC1)c(=O)n2C
HCT-116 [1]
  inhibition at […]: 99.4%
HCT-116 [2]
  IC50: 0.0333 µM
HCT-116 [3]
  inhibition: Dose-Dependent Effect
HCT-116 [4]
  Activity: 65.15%
HCT-116 [5]
  Activity: 60.76%
HCT-116 [6]
  Activity: 61.36%
HCT-116 [7]
  Activity: 60.62%
HCT-116 [8]
  Activity: 15.81%
HCT-116 [9]
  Activity: 15.5%
HCT-116 [10]
  Activity: 14.91%
HCT-116 [11]
  Activity: 16.46%
HCT-116 [12]
  Activity: 19.94%
HCT-116 [13]
  Activity: 23.44%
HCT-116 [14]
  Activity: 21.75%
HCT-116 [15]
  Activity: 22.92%
HCT-116 [16]
  Activity: 53.41%
HCT-116 [17]
  Activity: 45.35%
HCT-116 [18]
  Activity: 32.64%
HCT-116 [19]
  Activity: 24.76%
HCT-116 [20]
  Activity: 21.65%
HCT-116 [21]
  Activity: 30.99%
HCT-116 [22]
  Activity: 53.54%
HCT-116 [23]
  Activity: 69.21%
HCT-116 [24]
  Activity: 22.74%
HCT-116 [25]
  Activity: 25.63%
HCT-116 [26]
  Activity: 13.82%
HCT-116 [27]
  Activity: 9.03%
NCI-H460
  Activity: Active
A549 [28]
  inhibition in vivo at 7.5 mg/kg: 78.8%
BT-474
  Activity: Active

## Cc1cc(-c2ccc(C=O)o2)ncc1Nc1ncc2c(n1)n(C1CCOCC1)c(=O)n2C
HCT-116 [1]
  inhibition at […]: 98.5%
[29]
  IC50: 0.0002 µM
[30]
  CL: 145.21 L/h/kg
In vivo [31]
  half-life at 24 h: 34.4 h
In vivo [32]
  half-life at 24 h: 9.79 h
In vivo [33]
  CL/F at 24 h: 407 L/h/kg
In vivo [34]
  AUC(0-t) at 24 h: 0.00783 µg·h/mL
In vivo [35]
  AUC(0-t) at 24 h: 0.0299 µg·h/mL
In vivo [36]
  Cmax at 24 h: 0.00224 µg/mL
In vivo [37]
  Cmax at 24 h: 0.0252 µg/mL
In vivo [38]
  bioavailability at 24 h: 36.2%
In vitro
  half-life at 5 min, 1 µM: 0.327 h
hERG (KCNH2)
  inhibition at 20 µM: 4.42%

## CC(=O)O[C@H]1C(=O)[C@@]2(C)[C@H]([C@H](OC(=O)c3ccccc3)[C@]3(O)C[C@H](OC(=O)[C@H](O)[C@@H](NC(=O)c4ccccc4)c4ccccc4)C(C)=C1C3(C)C)[C@]1(OC(C)=O)CO[C@@H]1C[C@@H]2O
A549 [39]
  Activity: inactive

## Cc1cc2ncnn2cc1Nc1ncc2c(n1)n(C1CCOCC1)c(=O)n2C [AZD-7648]
HCT-116 [1]
  inhibition at […]: 98.2%
HCT-116 [2]
  IC50: 0.0381 µM
NCI-H460
  Activity: Active
A549 [40]
  inhibition in vivo at 15 mg/kg: 46.1%
[41]
  Activity: Non-Toxic
[42]
  AUCt: 2.45898 µg·h/mL
In vivo [35]
  AUC(0-t) at 24 h: 3.15 µg·h/mL
In vivo [36]
  Cmax at 24 h: 0.836 µg/mL
In vivo [37]
  Cmax at 24 h: 2.62 µg/mL
In vivo [38]
  bioavailability at 24 h: 78.1%
